Patent US7790474B1, “p53 modulators” (Schering Corporation, priority 2005, dated 2010)

What follows are compounds tested on GST-p53 DNA binding domain (aa 92-aa 312) (assay: Scintillation Proximity Assay (displacement of 3H-labeled p53 binder)). Details: percentage of 3H-labeled ligand remaining bound, number in brackets = average of n.
Description: [drawing 38] (^3H at C bearing the chlorophenyl groups and the piperazinyl group), a radiolabeled small molecule which binds to p53, and the GST-p53 DNA binding domain (aa 92-aa 312), a quantitative screening assay was used to determine if various molecules comprise p53 binding activity. The assay is based on Scintillation Proximity Assay (SPA) technology. The complex of GST-p53,
[drawing 39] and Glutathione-SPA beads (Amersham Biosciences) were incubated with mixing for 1 hour at room temperature in the presence of the compounds to be screened. The signal was read on a Microbeta.
The numerical values expressed refer to the percentage of labeled
[drawing 40] remaining bound to the mutant p53 protein after exposure to the indicated compound.

SMILES | SPA ASSAY % Residual T @ 2 ug/mL of drug (Average of)
COC(=O)[C@@H](Nc1nc(CNC(=O)Nc2ccccc2-c2ccccc2)nc2ccccc12)C(C)C [Formula 57] | 52.7%
CN(C)CCCNc1nc(CN(C)Cc2ccco2)nc2ccccc12 [Formula 63] | 52.7%
CN(C)CCCNc1nc(CN2CCN(C(=O)Nc3ccc(C#N)cc3)CC2)nc2ccccc12 [Formula 40] | 52.5%
CN(C)CCCNc1nc(CN(C)Cc2cccc(C#N)c2)nc2ccccc12 [Formula 69] | 50.9%
CN(C)CCCNc1nc(CN2CCN(C(c3ccccc3)c3ccc(OC(F)(F)F)cc3)CC2)nc2ccccc12 (stereo not drawn) [Formula 9] | 27.9%
COC(=O)[C@@H](Nc1nc(CN2CCN(C(=O)NC(c3ccccc3)c3ccccc3)CC2)nc2ccccc12)C(C)C [Formula 12] | 45.6%
CN(C)CCCNc1nc(CN(C)Cc2ccoc2)nc2ccccc12 [Formula 64] | 50.7 (3) %
Clc1ccc(C(c2ccc(Cl)cc2)N2CCN(Cc3nc(N4CCN(c5ncccn5)CC4)c4ccccc4n3)CC2)cc1 [Formula 47] | 85.0%
CCC(C)(C)C1CCC(N2CCN(Cc3nc(NCCCN(C)C)c4ccccc4n3)CC2)CC1 (stereo not drawn) [Formula 15] | 38.1%
CN(C)CCCNc1nc(CN2CCN(C(c3ccc(Cl)cc3)c3ccc(Cl)cc3)CC2)nc2ccccc12 [Formula 8] | 16.1%
COC(=O)[C@@H](Nc1nc(CNC(=O)Nc2ccc(Cl)c(Cl)c2)nc2ccccc12)C(C)C [Formula 55] | 57.0%
O=C(C1CCCO1)N1CCN(c2nc(CN3CCN(C(c4ccc(Cl)cc4)c4ccc(Cl)cc4)CC3)nc3ccccc23)CC1 (stereo not drawn) [Formula 48] | 66.0%
CN(C)CCCNc1nc(CN(C)Cc2ccccc2)nc2ccccc12 [Formula 35] | 22.2%
CC(C)CCN(C)Cc1nc(NCCCN(C)C)c2ccccc2n1 [Formula 61] | 31.6 (3) %
Cc1cc(C)c(NC(=O)N2CCN(Cc3nc(NCCCN(C)C)c4ccccc4n3)CC2)c(C)c1 [Formula 39] | 53.0%
CN(C)CCCNc1nc(CN(C)Cc2ccccc2C#N)nc2ccccc12 [Formula 68] | 52.7%
CCC(C)(C)C1CCC(N2CCN(Cc3nc(NCCCN(C)C)c4ccccc4n3)CC2)C1 (stereo not drawn) [Formula 38] | 55.7%

SMILES | SPA ASSAY % Residual T @ 2 ug/mL of drug (Average of)
CC(C)[C@H](Nc1nc(CNC(=O)N[C@H](C)c2ccccc2)nc2ccccc12)C(N)=O [Formula 59] | 56.8%
CCC(C)CN(C)Cc1nc(NCCCN(C)C)c2ccccc2n1 (stereo not drawn) [Formula 62] | 50.0 (3) %
CNCc1nc(NCCCN(C)C)c2ccccc2n1 [Formula 36] | 42.6%
COC(=O)[C@@H](Nc1nc(CN2CCN(C(=O)Nc3ccc(C(C)C)cc3)CC2)nc2ccccc12)C(C)C [Formula 11] | 39.5%
NC(=O)C1CCN(c2nc(CN3CCN(C(c4ccc(Cl)cc4)c4ccc(Cl)cc4)CC3)nc3ccccc23)CC1 [Formula 52] | 79.9%
CN(C)CCCNc1nc(CN(C)Cc2nccs2)nc2ccccc12 [Formula 66] | 37.0 (3) %
CN(C)CCCNc1nc(CN2CCN(C(=O)Nc3ccc(Cl)c(Cl)c3)CC2)nc2ccccc12 [Formula 17] | 29.9%
COc1ccc(NC(=O)N2CCN(Cc3nc(NCCCN(C)C)c4ccccc4n3)CC2)cc1 [Formula 16] | 38.0%
CN(C)CCCNc1nc(CN(C)Cc2cccs2)nc2ccccc12 [Formula 65] | 65.5%
CN(C)CCCNc1nc(CN(C)Cc2cccc(F)c2)nc2ccccc12 [Formula 67] | 64.1%
CN(Cc1ccccc1)c1nc(CN2CCN(C(c3ccc(Cl)cc3)c3ccc(Cl)cc3)CC2)nc2ccccc12 [Formula 43] | 80.7%
CN(Cc1ccccc1)Cc1nc2ccccc2c(=O)[nH]1 [Formula 34] | 36.8%
CN(C)CCCNc1nc(CN2CCN(C(c3ccccc3)c3ccc(OC(F)(F)F)cc3)CC2)nc2ccccc12 (stereo not drawn) [Formula 10] | 46.1%
COC(=O)[C@@H](Nc1nc(CNC(=O)Nc2cccc(Br)c2)nc2ccccc12)C(C)C [Formula 58] | 44.9%
Clc1ccc(C(c2ccc(Cl)cc2)N2CCN(Cc3nc(N4CCN(c5ccccc5)CC4)c4ccccc4n3)CC2)cc1 [Formula 46] | 87.5%
CN(C)[C@@H]1CCN(c2nc(CN3CCN(C(c4ccc(Cl)cc4)c4ccc(Cl)cc4)CC3)nc3ccccc23)C1 [Formula 50] | 53.0%

The remaining lines, values ahead:

SPA ASSAY % Residual T @ 2 ug/mL of drug (Average of) | SMILES
48.4 (3) % | CN(C)CCCNc1nc(CN(C)Cc2cccc(C(F)(F)F)c2)nc2ccccc12 [Formula 85]
52.8% | CN(C)CCCNc1nc(CN(C)C2CCC(C(F)(F)F)CC2)nc2ccccc12 (stereo not drawn) [Formula 106]
49.5 (3) % | CN(C)CCCNc1nc(CN(C)Cc2cc(Cl)ccc2Cl)nc2ccccc12 [Formula 87]
25.7% | CN(C)CCCNc1nc(CN(C)Cc2cccc3cc[nH]c23)nc2ccccc12 [Formula 77]
61.3% | COc1ccc(/C=C/c2nc(NCCCN(C)C)c3ccccc3n2)cc1 [Formula 114]
45.0 (3) % | CN(C)CCCNc1nc(CN(C)C2CCSC2)nc2ccccc12 (stereo not drawn) [Formula 97]
44.8% | CN(C)CC[C@H](Nc1nc(CN2CCN(C(c3ccc(Cl)cc3)c3ccc(Cl)cc3)CC2)nc2ccccc12)C(N)=O [Formula 115]
54.0% | CN(C)CCCNc1nc(CN(C)Cc2ccc(Oc3ccccc3)cc2)nc2ccccc12 [Formula 91]
58.6% | CN(C)CCC[C@H](Nc1nc(CN2CCN(C(c3ccc(Cl)cc3)c3ccc(Cl)cc3)CC2)nc2ccccc12)C(N)=O [Formula 118]
28.7(3) % | CN(C)CCCNc1nc(CN(C)C2CCC3CCCCC3C2)nc2ccccc12 (stereo not drawn) [Formula 102]
45.9 (3) % | CN(C)CCCNc1nc(CN(C)Cc2cc3ccccc3o2)nc2ccccc12 [Formula 78]
61.1% | CN(C)CCCNc1nc(CN(C)Cc2ccc(C#Cc3ccccc3)cc2)nc2ccccc12 [Formula 92]
21.0 (2) % | CN(C)CCCNc1nc(CN(C)C2CCC(c3ccccc3)CC2)nc2ccccc12 (stereo not drawn) [Formula 108]
69.7% | Cc1cccc(C)c1CN(C)Cc1nc(NCCCN(C)C)c2ccccc2n1 [Formula 72]
55.1% | CN(C)CCCNc1nc(CN(C)Cc2ccc(Cl)cc2)nc2ccccc12 [Formula 74]
64.4% | CN(C)CCCNc1nc(CN(C)C2C[C@@H]3CC[C@H]2C3)nc2ccccc12 (stereo partly drawn) [Formula 98]
58.5% | CN(C)CCCC[C@H](Nc1nc(CN2CCN(C(c3ccc(Cl)cc3)c3ccc(Cl)cc3)CC2)nc2ccccc12)C(N)=O [Formula 119]

SPA ASSAY % Residual T @ 2 ug/mL of drug (Average of) | SMILES
57.8% | CCOC(=O)C1CC1CN(C)Cc1nc(NCCCN(C)C)c2ccccc2n1 (stereo not drawn) [Formula 76]
23.6 (3) % | Cc1c(CN(C)Cc2nc(NCCCN(C)C)c3ccccc3n2)sc2ccccc12 [Formula 88]
46.8% | CN(C)CCCNc1nc(CN(C)Cc2cccc3c2OCO3)nc2ccccc12 [Formula 81]
47.7% | CCOC(=O)[C@H](CCN(C)C)Nc1nc(CN2CCN(C(c3ccc(Cl)cc3)c3ccc(Cl)cc3)CC2)nc2ccccc12 [Formula 116]
53.7% | CN(C)CCCNc1nc(CN(C)Cc2ccccc2Sc2ccc(Cl)cc2)nc2ccccc12 [Formula 94]
20.7 (2) % | CN(C)CCCNc1nc(CN(C)C2CCN(C(=O)c3ccccc3)CC2)nc2ccccc12 [Formula 110]
54.1% | CN(C)CCCNc1nc(CN(C)Cc2ccc(C#N)cc2)nc2ccccc12 [Formula 70]
45.1 (3) % | CN(C)CCCNc1nc(CN(C)Cc2cccn2S(=O)(=O)c2ccccc2)nc2ccccc12 [Formula 93]
44.4% | COc1ccc(CN(C)Cc2nc(NCCCN(C)C)c3ccccc3n2)cc1 [Formula 73]
67.6% | CC(CCN(C)Cc1nc(NCCCN(C)C)c2ccccc2n1)c1ccccc1 (stereo not drawn) [Formula 79]
56.5% | CC1CCC(N(C)Cc2nc(NCCCN(C)C)c3ccccc3n2)CC1 (stereo not drawn) [Formula 99]
68.4% | CN(C)CCCNc1nc(CN(C)C/C=C/c2ccccc2)nc2ccccc12 [Formula 71]
61.1% | CN(C)CCCNc1nc(CN(C)Cc2cccc(Cl)c2Cl)nc2ccccc12 [Formula 86]
57.7% | CN(C)CCCNc1nc(CN(C)C2CCCC(C(F)(F)F)C2)nc2ccccc12 (stereo not drawn) [Formula 105]
65.6% | CN(C)CCCNc1nc(CN(C)Cc2ccccc2C(=O)O)nc2ccccc12 [Formula 80]
57.0% | CN(C)CCCNc1nc(CN(C)CC2CCCCC2)nc2ccccc12 [Formula 111]
